Source: PMC4850295, “Using a Genetically Encoded Sensor to Identify Inhibitors of Toxoplasma gondii Ca^2+ Signaling” (The Journal of Biological Chemistry, 2016)

Test system: T1, GCaMP5-expressing T. gondii
T1 construct: whole extracellular parasites expressing GCaMP5 Ca2+ sensor
Parameters: species or system GCaMP5-expressing Toxoplasma gondii, extracellular; GCaMP5 fluorescence (cytosolic Ca2+) after 100 uM zaprinast in compound-pretreated extracellular parasites, background-subtracted, relative to zaprinast alone
Conditions: 100 uM zaprinast stimulation, 10 min pretreatment, mean of two replicates, 0.23 h, 10 µM
In short: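 Read-out is GCaMP5 calcium fluorescence (ex 485/em 525 nm) taken 4 min after 100 μM zaprinast at 37 °C, following 10 min compound pretreatment at 10 μM in duplicate biological replicates. Values are basal-subtracted fold change versus zaprinast-only controls; parasites held extracellular in Ringer's solution.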

For `CCn1c(-c2nonc2N)nc2c(-c3ccccc3)ncc(OCCCN)c21` [GSK260205A], the “fold change in fluorescence relative to zaprinast alone” value was 0.1513.

Same assay, conditions: 100 uM zaprinast stimulation; 10 min pretreatment; mean of two replicates; 0.23 h

First: O=C1NC(=O)C(c2cccc(Cl)c2)=C1Nc1ccc(O)c(Cl)c1 [SB-409514]
Second: O=C1NC(=O)C(c2cccc(Cl)c2)=C1Nc1ccc(Cl)c(C(=O)O)c1 [SB-409513]
The “fold change in fluorescence relative to zaprinast alone” value of the first is higher: 1.132 for the first, 1.123 for the second.

First: COc1ccc(CNC(=O)NC2CCN(c3ccnc(Nc4ccc(F)cc4)n3)C2)cc1 (centres unmarked) [GSK1379706A]
Second: COc1ccc(Nc2nccc(-c3ccc(NC(=O)c4cc5cc(F)ccc5[nH]4)cc3)n2)cc1 [GSK1229496A]
The “fold change in fluorescence relative to zaprinast alone” value of the first is lower: 0.6471 for the first, 1.727 for the second.

First: CCOc1ccc2c(-c3ccnc(Nc4cccc(C(F)(F)F)c4)n3)cnn2n1 [GW811761X]
Second: COc1ccc2c(-c3ccnc(Nc4cccc(OC(F)(F)F)c4)n3)cnn2n1 [GW810372X]
The “fold change in fluorescence relative to zaprinast alone” value of the first is higher: 1.047 for the first, 0.1756 for the second.

Going from `Fc1ccc(-c2ncn(C3CCNCC3)c2-c2ccnc(Nc3ccccc3)n2)cc1` [SB-238039-R] to `Fc1ccc(-c2ncn(CCCNCc3ccccc3)c2-c2ccncc2)cc1` [SB-210486], the “fold change in fluorescence relative to zaprinast alone” value rises from 0.4937 to 0.7327.

Compared with `COc1cc2c(Nc3cccc(NC(=O)c4ccccc4)c3)ncnc2cc1OCCCN1CCOCC1` [GSK223810A], `CS(=O)(=O)CCNCc1ccc(-c2ccc3ncnc(Nc4ccc(OCc5ccccc5)c(Br)c4)c3c2)o1` [GW580496A] is lower in “fold change in fluorescence relative to zaprinast alone” value: 1.471 for the first, 1.191 for the second.

Going from `COc1ccc(-c2nn3ncccc3c2-c2ccnc(Nc3cccc(C(F)(F)F)c3)n2)cc1` [GW827105X] to `O=C(Nc1cccc(-c2nn3ncccc3c2-c2ccnc(Nc3cccc(C(F)(F)F)c3)n2)c1)c1c(F)cccc1F` [GSK299495A], the “fold change in fluorescence relative to zaprinast alone” value rises from 0.7957 to 1.22.

Compared with `N#Cc1ccc(-c2cc(-c3cn[nH]c3-c3ccccn3)ccn2)cc1` [GW693028X], `CN(C(=O)c1ccc(-c2cc(-c3cn[nH]c3-c3ccccn3)ccn2)cc1)C1CCOCC1` [GW810083X] is lower in “fold change in fluorescence relative to zaprinast alone” value: 1.123 for the first, 1.114 for the second.

Going from `NC[C@H](CC1CCCCC1)NC(=O)c1cc(Br)c(-c2ccnc3[nH]ccc23)s1` [GSK1581427A] to `Cc1ccc(C(=O)NC2CCCCC2)cc1-c1ccc(C(=O)NCC2CC2)cc1` [GW782907X], the “fold change in fluorescence relative to zaprinast alone” value rises from 1.128 to 1.25.

Compared with `Fc1ccc(-c2nn3c(OCC(F)(F)F)cccc3c2-c2ccncc2)cc1` [GW514784X], `NCc1ccc(-c2nc(-c3ccc(Cl)c(O)c3)c(-c3ccncc3)[nH]2)cc1` [SB-476429-A] is higher in “fold change in fluorescence relative to zaprinast alone” value: 0.04564 for the first, 1.226 for the second.

First: COc1ccccc1-c1ccc2c(NC(=O)C3CC3)n[nH]c2n1 [SB-711239]
Second: O=C(Nc1n[nH]c2nc(-c3ccccc3O)ccc12)C1CC1 [SB-711880]
The “fold change in fluorescence relative to zaprinast alone” value of the first is lower: 1.107 for the first, 1.267 for the second.

Going from `COc1cc(Nc2nccc(N3CCC(NC(=O)c4cc5ccccc5s4)C3)n2)cc(OC)c1OC` (centres unmarked) [GSK1379760A] to `COc1cc(Nc2ncc3c(C)nc(-c4cc5ccccc5[nH]4)n3n2)cc(OC)c1OC` [GW869516X], the “fold change in fluorescence relative to zaprinast alone” value falls from 1.279 to 0.08874.

Going from `COc1cccc(-n2ncc3c(N/N=C/c4ccc(S(C)(=O)=O)cc4)ncnc32)c1` [GW811168X] to `Cn1cncc1-c1ccc2ncnc(Nc3ccc(OCc4ccccc4)cc3)c2c1` [GW320571X], the “fold change in fluorescence relative to zaprinast alone” value rises from 0.6755 to 0.8423.

First: O=C(Nc1n[nH]c2cc(-c3ccccc3F)ccc12)C1CC1 [SB-733371]
Second: O=C(Nc1n[nH]c2cc(-c3ccco3)ccc12)C1CC1 [SB-737447]
The “fold change in fluorescence relative to zaprinast alone” value of the first is lower: 0.8641 for the first, 1.13 for the second.

First: Cc1cccc(Nc2nc(NCCN)ncc2C(N)=O)c1 [GSK1292139B]
Second: Cc1cc(-c2ccnc(Nc3cccc(C#N)c3)n2)cc(C)c1O [GSK1440913A]
The “fold change in fluorescence relative to zaprinast alone” value of the first is higher: 0.903 for the first, 0.3868 for the second.

Going from `c1ccc(COc2ccc(Nc3ncnc4ccc(-c5ccco5)cc34)cc2)cc1` [GW284372X] to `CCCN(CCS(C)(=O)=O)Cc1ccc(-c2ccc3ncnc(Nc4ccc(OCc5cccc(F)c5)c(Cl)c4)c3c2)o1` [GW621823A], the “fold change in fluorescence relative to zaprinast alone” value falls from 0.7189 to 0.6108.

First: COc1cc2ncn(-c3cc(O[C@@H](C)c4ccccc4Cl)c(C(N)=O)s3)c2cc1OC [GSK237700A]
Second: COc1cc2ncn(-c3cc(OCCc4ccccc4)c(C(N)=O)s3)c2cc1OC [GSK204925A]
The “fold change in fluorescence relative to zaprinast alone” value of the first is higher: 1.147 for the first, 0.9795 for the second.

Going from `CC(=O)N1CCN(c2ccc(Nc3nccc(-c4sc(C(C)C)nc4-c4cccc(NS(=O)(=O)c5cccc(Cl)c5)c4)n3)cn2)CC1` [GSK1660437A] to `CC(=O)N1CCN(c2ccc(Nc3nccc(-c4sc(C(C)C)nc4-c4cccc(NS(=O)(=O)c5ccccc5)c4)n3)cn2)CC1` [GSK1645872A], the “fold change in fluorescence relative to zaprinast alone” value falls from 1.275 to 0.8017.

Compared with `Cc1ccc(NC(=O)c2ccoc2)cc1-c1ccc(C(=O)NCC2CC2)cc1` [GW743024X], `CC1=C(C(=O)Nc2ccc3[nH]ncc3c2)C(c2ccc(F)cc2)NC(=O)N1` (centres unmarked) [GSK180736A] is lower in “fold change in fluorescence relative to zaprinast alone” value: 1.222 for the first, 0.8811 for the second.

First: O=c1cc(N2CCOCC2)nc2n(Cc3cccc(Cl)c3Cl)c3ccccc3n12 [GSK2299009A]
Second: Cc1ccc(-n2nc(C(C)(C)C)cc2NC(=O)Nc2ccc(OCCN3CCOCC3)c3ccccc23)cc1 [GW839464X]
The “fold change in fluorescence relative to zaprinast alone” value of the first is higher: 1.093 for the first, 1.059 for the second.

Going from `CCC(CC)(CC)n1cnc2c(N)ncnc21` [SKF-97620] to `Cn1ncc2c(N)ncnc21` [SKF-18267], the “fold change in fluorescence relative to zaprinast alone” value falls from 0.9821 to 0.9633.

Going from `C[C@@H](Oc1cc(-n2cnc3ccc(OCC4CCN(C)CC4)cc32)sc1C(N)=O)c1ccccc1Cl` [GSK571989A] to `C[C@@H](Oc1cc(-n2cnc3cc(-c4cnn(C)c4)ccc32)sc1C(N)=O)c1ccccc1Cl` [GSK580432A], the “fold change in fluorescence relative to zaprinast alone” value rises from 0.9822 to 1.313.

Going from `Cc1cc(N2CCC(NS(=O)(=O)c3ccc(F)cc3)CC2)nc(Nc2cccc(C#N)c2)n1` [GSK1653537A] to `Cc1ccc(Nc2ccnc(Nc3ccc(C)c(F)c3)n2)cc1O` [GW582868A], the “fold change in fluorescence relative to zaprinast alone” value rises from 0.8395 to 1.057.

Going from `COc1cc2ncnc(Nc3ccc(C)c(O)c3)c2cc1OC` [GW410563A] to `COC(=O)c1sc(-n2cnc3cc(OC)c(OC)cc32)cc1OCc1ccccc1C(F)(F)F` [GSK1030058A], the “fold change in fluorescence relative to zaprinast alone” value falls from 1.297 to 0.7743.

Going from `CN1CCN(Cc2ccc(-c3ccc4c(Nc5ccc(Oc6ccccn6)cc5)ccnc4c3)o2)CC1` [GW567140X] to `c1ccc(Oc2ccc(Nc3ccnc4cc(-c5ccc(CNCCN6CCOCC6)o5)ccc34)cc2)nc1` [GW567145X], the “fold change in fluorescence relative to zaprinast alone” value falls from 1.304 to 0.643.

First: N#CCc1ccc(Nc2nccc(Nc3ccc(Oc4ccccc4)cc3)n2)cc1 [GW639905A]
Second: COc1ccc(Nc2nccc(NCCNC(=O)c3cc4ccccc4s3)n2)cc1 [GSK1379896A]
The “fold change in fluorescence relative to zaprinast alone” value of the first is higher: 1.192 for the first, 1.173 for the second.

Going from `O=c1[nH]ccc2nc(N[C@@H]3CCNC3)nc(Nc3ccc4c(c3)S(=O)(=O)CC4)c12` [GSK2181306A] to `COc1cccc(-c2ccc3c(NC(=O)C4CC4)n[nH]c3n2)c1` [SB-710903], the “fold change in fluorescence relative to zaprinast alone” value falls from 1.236 to 1.151.

Going from `CSc1ccc(-c2nc3n(c2-c2ccncc2)CCC3)cc1` [SKF-105561] to `CN(c1ccc(NC(=O)Nc2cccc(Cl)c2)cc1)c1ccnc(N)n1` [GW830707A], the “fold change in fluorescence relative to zaprinast alone” value falls from 0.9692 to 0.7635.

First: O=C(Nc1n[nH]c2nc(-c3cccs3)c(Br)cc12)C1CC1 [SB-735297]
Second: O=C(Nc1n[nH]c2nc(-c3ccco3)c(Br)cc12)C1CCN(Cc2ccccc2)C1 (centres unmarked) [SB-742034-AC]
The “fold change in fluorescence relative to zaprinast alone” value of the first is higher: 1.322 for the first, 0.9039 for the second.

Compared with `CN1C(=O)C(Nc2ccccc2)=C(c2ccccc2)C1=O` [SB-300079], `Cn1cc(C=C2C(=O)Nc3cccnc32)c2ccccc21` [GW441756X] is higher in “fold change in fluorescence relative to zaprinast alone” value: 0.899 for the first, 1.234 for the second.

Compared with `CCn1c(-c2nonc2N)nc2c(C#CC(C)(C)O)ncc(OC3CCNCC3)c21` [GSK619487A], `CN(C)CCCn1c(-c2nonc2N)nc2cnccc21` [SB-751399] is higher in “fold change in fluorescence relative to zaprinast alone” value: 1.184 for the first, 1.355 for the second.

Going from `Cc1c(O)cccc1Nc1ccnc2ccc(C(F)(F)F)cc12` [GW466413A] to `Cc1ccc(NC(=O)Nc2cccc(C(F)(F)F)c2)cc1` [GSK955403A], the “fold change in fluorescence relative to zaprinast alone” value falls from 1.009 to 0.9183.

Going from `CN(C)c1ncnc2nc[nH]c12` [SKF-31736] to `C[C@@H]1CC[C@H](C(=O)NC2CCCCC2)CN1c1cc(-c2ccc3c(N)n[nH]c3c2)nc(N)n1` [GSK2291363A], the “fold change in fluorescence relative to zaprinast alone” value rises from 1.087 to 1.384.

Going from `O=C(Nc1n[nH]c2cc(-c3ccoc3)ccc12)C1CC1` [SB-738481] to `COc1cc2ncn(-c3cc(OCc4ccccc4C(F)(F)F)c(C(C)=O)s3)c2cc1OC` [GSK1030059A], the “fold change in fluorescence relative to zaprinast alone” value falls from 1.2 to 1.158.

Same assay, conditions: 0.23 h, 10 µM

In the case of `COc1cc(/C=N/Nc2ncnc3c2cnn3C(C)C)ccc1O` [GW644007X], the “% of control remaining” value is reported as 1.177.
